Measured values: patent US20040152106A1, “Gene necessary for striatal function, uses thereof, and compounds for modulating same” (priority 1999, published 2004)

What was measured:
[1] = biological target: T1, PDE10A (Mus musculus, UniProt Q8CA95); details: among inhibitors tested on PDE10A; cited from earlier work
T1 sequence (Q8CA95 1-779 isoform Q8CA95-2): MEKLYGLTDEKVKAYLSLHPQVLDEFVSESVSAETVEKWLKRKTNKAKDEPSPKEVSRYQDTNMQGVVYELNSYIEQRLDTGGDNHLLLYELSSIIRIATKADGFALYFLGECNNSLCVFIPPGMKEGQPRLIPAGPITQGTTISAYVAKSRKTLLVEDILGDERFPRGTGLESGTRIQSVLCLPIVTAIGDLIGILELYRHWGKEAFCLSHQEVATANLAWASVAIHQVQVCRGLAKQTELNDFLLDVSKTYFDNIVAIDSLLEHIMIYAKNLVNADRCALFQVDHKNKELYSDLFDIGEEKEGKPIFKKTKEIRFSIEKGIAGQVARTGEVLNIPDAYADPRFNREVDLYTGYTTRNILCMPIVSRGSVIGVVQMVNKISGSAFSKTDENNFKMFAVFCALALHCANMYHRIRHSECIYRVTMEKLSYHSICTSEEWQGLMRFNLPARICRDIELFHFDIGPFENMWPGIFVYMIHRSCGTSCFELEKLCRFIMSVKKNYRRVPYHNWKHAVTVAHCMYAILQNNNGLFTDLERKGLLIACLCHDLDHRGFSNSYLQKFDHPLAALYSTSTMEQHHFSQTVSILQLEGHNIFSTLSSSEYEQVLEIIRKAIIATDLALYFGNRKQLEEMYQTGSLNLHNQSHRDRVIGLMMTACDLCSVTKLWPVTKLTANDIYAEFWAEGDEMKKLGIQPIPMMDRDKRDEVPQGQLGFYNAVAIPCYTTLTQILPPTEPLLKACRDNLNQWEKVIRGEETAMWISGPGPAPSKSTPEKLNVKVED

[2] = test system: Huntington's disease patient; assay: Clinical use of PDE10A modulator in a Huntington's disease patient (case report); type: in vivo, human; details: 200 mg twice daily resumed after 7 days of suspension
Protocol: A person was admitted to hospital from a long-term care facility due to progressive deterioration of their physical and mental symptoms caused by Huntington's disease. The patient had been diagnosed with Huntington's disease. Prior to admission to the hospital, they had become increasingly aggressive and uncooperative. Moreover, there appeared to be an increase in the number of psychotic episodes. […] The patient had been stable for a number of years on the antipsycotic haloperidol (3 mg/day). For the last two years, the haloperidol had been replaced by olanzapine (2.5-7.5 mg/day). Minocycline, a tetracycline derivative, was administered at 50 mg twice daily for 7 days, followed by 100 mg twice daily for 7 days and finally 200 mg twice daily for 5 weeks. […] The minocycline treatment was suspended for 7 days. […] Minocycline (200 mg twice daily) treatment will continue indefinitely. The improvement in behaviour and decrease in apparent psychosis has allowed for the transfer of the patient from the acute care facility back to long-term care.

SMILES: OCCN(CCO)c1nc(N2CCCCC2)c2nc(N(CCO)CCO)nc(N3CCCCC3)c2n1 [Dipyridamole]
- potency as inhibitor of PDE10A activity [1]: highest potency

SMILES: CC(C)Cn1c(=O)n(C)c(=O)c2[nH]cnc21 [IBMX]
- potency as inhibitor of PDE10A activity [1]: potent inhibitor

SMILES: CN(C)c1ccc(O)c2c1C[C@H]1C[C@H]3[C@H](N(C)C)C(O)=C(C(N)=O)C(=O)[C@@]3(O)C(O)=C1C2=O [Minocycline]
- time to response after resumed treatment [2]: ≤ 3 days

SMILES: CN1C(=O)c2[nH]c(Cc3ccc(C(F)(F)F)cc3)nc2N2C1=N[C@@H]1CCC[C@@H]12 [SCH 51866]
- potency as inhibitor of PDE10A activity [1]: highest potency
